Data taken from ChEMBL document CHEMBL1157802, “5-Functionalized indazoles as glucocorticoid receptor agonists” (Bioorg Med Chem Lett, 2010).

How the values were obtained:
Glucocorticoid receptor = target: T1, Glucocorticoid receptor (Homo sapiens, UniProt P04150)
T1 sequence (P04150 whole entry): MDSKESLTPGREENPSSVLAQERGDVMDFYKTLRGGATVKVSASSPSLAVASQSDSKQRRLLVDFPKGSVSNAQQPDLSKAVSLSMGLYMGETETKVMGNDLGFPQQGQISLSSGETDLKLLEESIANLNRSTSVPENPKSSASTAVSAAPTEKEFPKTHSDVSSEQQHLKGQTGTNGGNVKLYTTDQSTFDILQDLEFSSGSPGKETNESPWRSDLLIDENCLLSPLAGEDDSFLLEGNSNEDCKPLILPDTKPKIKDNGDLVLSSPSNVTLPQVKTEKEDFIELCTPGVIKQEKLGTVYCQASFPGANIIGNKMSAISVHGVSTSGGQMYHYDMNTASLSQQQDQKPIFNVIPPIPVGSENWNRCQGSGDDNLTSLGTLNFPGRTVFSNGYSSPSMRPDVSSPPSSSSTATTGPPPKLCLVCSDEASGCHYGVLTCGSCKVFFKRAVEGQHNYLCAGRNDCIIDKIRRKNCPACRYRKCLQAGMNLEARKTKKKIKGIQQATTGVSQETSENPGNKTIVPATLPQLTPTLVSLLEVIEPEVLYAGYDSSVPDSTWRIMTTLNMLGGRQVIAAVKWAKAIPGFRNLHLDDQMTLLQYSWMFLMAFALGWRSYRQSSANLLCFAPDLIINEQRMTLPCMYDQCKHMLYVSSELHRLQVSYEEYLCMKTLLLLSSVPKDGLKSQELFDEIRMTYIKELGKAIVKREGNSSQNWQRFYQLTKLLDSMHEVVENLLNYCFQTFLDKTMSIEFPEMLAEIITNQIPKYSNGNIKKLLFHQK
Description: Binding affinity to human glucocorticoid receptor by fluorescence polarization competitive binding assay

[1] = Inhibition of phencyclidine receptor at 1 uM
[2] = target: D(1A) dopamine receptor (Homo sapiens) (UniProt P21728); assay: Inhibition of dopamine D1 receptor at 1 uM
Sequence of D(1A) dopamine receptor (Homo sapiens) (P21728 whole entry): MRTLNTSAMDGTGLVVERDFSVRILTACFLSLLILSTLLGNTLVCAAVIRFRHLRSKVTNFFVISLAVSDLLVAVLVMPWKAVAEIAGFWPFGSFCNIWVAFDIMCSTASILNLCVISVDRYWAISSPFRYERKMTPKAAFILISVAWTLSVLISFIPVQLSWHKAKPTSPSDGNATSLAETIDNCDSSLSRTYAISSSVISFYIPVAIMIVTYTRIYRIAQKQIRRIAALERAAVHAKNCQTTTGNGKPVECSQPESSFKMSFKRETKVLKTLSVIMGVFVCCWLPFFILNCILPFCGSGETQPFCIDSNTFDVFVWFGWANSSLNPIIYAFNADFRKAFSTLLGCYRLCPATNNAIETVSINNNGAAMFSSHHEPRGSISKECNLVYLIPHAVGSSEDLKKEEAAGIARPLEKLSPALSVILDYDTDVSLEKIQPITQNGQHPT

[3] = target: T2, Adenosine receptor A1 (Homo sapiens) (UniProt P30542); assay: Inhibition of adenosine A1 receptor at 1 uM
T2 sequence (whole entry): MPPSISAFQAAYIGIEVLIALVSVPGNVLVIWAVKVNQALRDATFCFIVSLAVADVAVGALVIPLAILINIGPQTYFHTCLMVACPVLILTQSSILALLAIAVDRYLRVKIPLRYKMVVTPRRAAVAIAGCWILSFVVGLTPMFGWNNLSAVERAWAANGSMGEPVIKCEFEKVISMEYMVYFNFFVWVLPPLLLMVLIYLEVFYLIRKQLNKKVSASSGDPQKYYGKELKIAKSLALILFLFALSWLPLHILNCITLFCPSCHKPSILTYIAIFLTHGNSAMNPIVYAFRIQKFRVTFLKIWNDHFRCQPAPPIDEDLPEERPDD

[4] = Inhibition of ATP-sensitive potassium channel at 1 uM
[5] = target: T3, Alpha-1A adrenergic receptor (Homo sapiens) (UniProt P35348); assay: Inhibition of adrenergic alpha1A receptor at 1 uM
T3 sequence (whole entry): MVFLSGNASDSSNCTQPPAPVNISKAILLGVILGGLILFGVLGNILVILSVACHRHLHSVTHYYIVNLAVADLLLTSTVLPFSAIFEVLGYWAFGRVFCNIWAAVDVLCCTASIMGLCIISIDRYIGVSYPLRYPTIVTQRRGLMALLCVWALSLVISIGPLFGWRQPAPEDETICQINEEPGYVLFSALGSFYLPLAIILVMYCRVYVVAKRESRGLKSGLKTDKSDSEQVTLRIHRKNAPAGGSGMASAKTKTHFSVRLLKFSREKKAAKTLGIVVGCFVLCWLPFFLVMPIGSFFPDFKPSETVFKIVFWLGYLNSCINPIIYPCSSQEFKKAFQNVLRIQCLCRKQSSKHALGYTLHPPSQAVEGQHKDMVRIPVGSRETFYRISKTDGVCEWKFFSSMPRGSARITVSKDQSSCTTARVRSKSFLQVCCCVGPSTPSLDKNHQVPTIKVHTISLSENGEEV

[6] = Inhibition of phorbol ester site of PKC at 1 uM
[7] = target: Beta-2 adrenergic receptor (Homo sapiens) (UniProt P07550); assay: Inhibition of adrenergic beta2 receptor at 1 uM
Sequence of Beta-2 adrenergic receptor (Homo sapiens) (P07550 whole entry, looked up): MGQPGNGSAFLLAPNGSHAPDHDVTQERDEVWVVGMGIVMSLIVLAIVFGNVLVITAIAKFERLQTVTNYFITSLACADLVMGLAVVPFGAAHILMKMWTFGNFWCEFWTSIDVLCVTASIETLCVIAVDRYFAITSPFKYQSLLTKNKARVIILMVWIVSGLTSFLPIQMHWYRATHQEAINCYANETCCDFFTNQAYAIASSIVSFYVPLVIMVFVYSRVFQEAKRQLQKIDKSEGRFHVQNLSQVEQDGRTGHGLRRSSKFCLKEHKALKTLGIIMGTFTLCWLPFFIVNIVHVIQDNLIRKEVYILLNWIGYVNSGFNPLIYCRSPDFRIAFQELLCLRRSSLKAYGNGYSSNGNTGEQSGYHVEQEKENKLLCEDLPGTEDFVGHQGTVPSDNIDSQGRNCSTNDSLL

[8] = target: Histamine H1 receptor (Homo sapiens) (UniProt P35367); assay: Inhibition of histamine H1 receptor at 1 uM
Sequence of Histamine H1 receptor (Homo sapiens) (P35367 whole entry): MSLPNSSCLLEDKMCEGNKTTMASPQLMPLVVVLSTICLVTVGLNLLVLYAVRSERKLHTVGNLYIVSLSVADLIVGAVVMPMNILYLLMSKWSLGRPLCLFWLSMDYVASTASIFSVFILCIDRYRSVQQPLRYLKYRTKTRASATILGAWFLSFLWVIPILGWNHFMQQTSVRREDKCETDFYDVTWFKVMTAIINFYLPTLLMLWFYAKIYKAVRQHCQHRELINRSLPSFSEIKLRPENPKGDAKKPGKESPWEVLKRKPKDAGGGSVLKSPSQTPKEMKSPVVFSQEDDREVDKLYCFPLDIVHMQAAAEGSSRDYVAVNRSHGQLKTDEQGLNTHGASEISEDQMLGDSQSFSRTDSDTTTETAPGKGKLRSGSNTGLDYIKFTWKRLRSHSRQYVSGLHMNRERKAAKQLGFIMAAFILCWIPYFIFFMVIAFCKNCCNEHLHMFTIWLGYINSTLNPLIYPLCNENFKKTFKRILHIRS

[9] = Inhibition of central benzodiazepine receptor at 1 uM
[10] = target: Muscarinic acetylcholine receptor M3 (Homo sapiens) (UniProt P20309); assay: Inhibition of muscarinic M3 receptor at 1 uM
[11] = target: D(2) dopamine receptor (Homo sapiens) (UniProt P14416); assay: Inhibition of dopamine D2S receptor at 1 uM
Sequence of D(2) dopamine receptor (Homo sapiens) (P14416 whole entry): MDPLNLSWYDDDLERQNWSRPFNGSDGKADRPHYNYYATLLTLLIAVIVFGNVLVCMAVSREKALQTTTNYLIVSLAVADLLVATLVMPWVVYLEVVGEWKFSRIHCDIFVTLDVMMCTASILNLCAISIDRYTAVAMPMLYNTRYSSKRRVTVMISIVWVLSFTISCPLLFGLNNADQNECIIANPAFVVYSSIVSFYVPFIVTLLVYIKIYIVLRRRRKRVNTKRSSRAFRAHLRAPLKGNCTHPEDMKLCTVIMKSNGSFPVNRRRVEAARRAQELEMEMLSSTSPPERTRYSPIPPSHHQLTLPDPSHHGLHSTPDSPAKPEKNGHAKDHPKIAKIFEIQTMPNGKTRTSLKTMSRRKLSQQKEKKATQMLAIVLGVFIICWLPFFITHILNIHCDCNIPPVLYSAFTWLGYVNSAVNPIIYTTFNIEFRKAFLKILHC

[12] = Inhibition of rolipram binding site at 1 uM
[13] = target: T4, Alpha-2A adrenergic receptor (Homo sapiens) (UniProt P08913); assay: Inhibition of adrenergic alpha2A receptor at 1 uM
T4 sequence (whole entry): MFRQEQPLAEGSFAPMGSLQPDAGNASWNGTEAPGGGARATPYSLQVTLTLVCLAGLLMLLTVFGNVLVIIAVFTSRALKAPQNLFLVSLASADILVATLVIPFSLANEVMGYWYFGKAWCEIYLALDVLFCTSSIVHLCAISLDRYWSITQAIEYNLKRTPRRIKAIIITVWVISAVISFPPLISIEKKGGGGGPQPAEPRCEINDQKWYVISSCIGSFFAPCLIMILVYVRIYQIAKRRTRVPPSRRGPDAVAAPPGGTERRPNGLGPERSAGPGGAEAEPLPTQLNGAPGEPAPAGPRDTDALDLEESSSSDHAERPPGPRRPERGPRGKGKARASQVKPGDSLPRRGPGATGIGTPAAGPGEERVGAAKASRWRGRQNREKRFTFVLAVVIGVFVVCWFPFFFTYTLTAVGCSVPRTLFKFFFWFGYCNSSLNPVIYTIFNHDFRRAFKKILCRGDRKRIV

[14] = target: Beta-1 adrenergic receptor (Homo sapiens) (UniProt P08588); assay: Inhibition of adrenergic beta-1 receptor at 1 uM
Sequence of Beta-1 adrenergic receptor (Homo sapiens) (P08588 whole entry, looked up): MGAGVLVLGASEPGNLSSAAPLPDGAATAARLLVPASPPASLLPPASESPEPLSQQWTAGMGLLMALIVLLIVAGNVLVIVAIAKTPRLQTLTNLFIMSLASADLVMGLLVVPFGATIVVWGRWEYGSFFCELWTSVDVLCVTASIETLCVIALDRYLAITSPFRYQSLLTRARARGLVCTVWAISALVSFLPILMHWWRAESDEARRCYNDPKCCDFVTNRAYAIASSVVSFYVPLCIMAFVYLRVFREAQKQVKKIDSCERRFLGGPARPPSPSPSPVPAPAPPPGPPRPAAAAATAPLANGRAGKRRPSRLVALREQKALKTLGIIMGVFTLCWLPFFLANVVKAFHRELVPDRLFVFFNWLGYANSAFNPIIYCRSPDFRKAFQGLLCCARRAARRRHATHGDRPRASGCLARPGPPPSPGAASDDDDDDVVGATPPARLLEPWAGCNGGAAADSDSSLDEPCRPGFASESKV

[15] = target: Mu-type opioid receptor (Homo sapiens) (UniProt P35372); assay: Inhibition of mu opioid receptor at 1 uM
Sequence of Mu-type opioid receptor (Homo sapiens) (P35372 whole entry): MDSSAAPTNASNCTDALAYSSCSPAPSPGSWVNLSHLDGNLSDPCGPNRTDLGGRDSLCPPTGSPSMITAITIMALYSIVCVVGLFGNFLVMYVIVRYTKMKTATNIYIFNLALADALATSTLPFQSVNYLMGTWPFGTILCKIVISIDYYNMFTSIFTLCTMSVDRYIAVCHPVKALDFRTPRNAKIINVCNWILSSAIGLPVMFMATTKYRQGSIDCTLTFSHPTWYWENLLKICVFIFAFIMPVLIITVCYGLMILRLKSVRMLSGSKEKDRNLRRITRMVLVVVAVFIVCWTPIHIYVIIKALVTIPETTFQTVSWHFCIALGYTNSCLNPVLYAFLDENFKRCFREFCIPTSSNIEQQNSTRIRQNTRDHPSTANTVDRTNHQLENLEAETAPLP

[16] = target: T5, Muscarinic acetylcholine receptor M2 (Homo sapiens) (UniProt P08172); assay: Inhibition of muscarinic M2 receptor at 1 uM
T5 sequence (whole entry): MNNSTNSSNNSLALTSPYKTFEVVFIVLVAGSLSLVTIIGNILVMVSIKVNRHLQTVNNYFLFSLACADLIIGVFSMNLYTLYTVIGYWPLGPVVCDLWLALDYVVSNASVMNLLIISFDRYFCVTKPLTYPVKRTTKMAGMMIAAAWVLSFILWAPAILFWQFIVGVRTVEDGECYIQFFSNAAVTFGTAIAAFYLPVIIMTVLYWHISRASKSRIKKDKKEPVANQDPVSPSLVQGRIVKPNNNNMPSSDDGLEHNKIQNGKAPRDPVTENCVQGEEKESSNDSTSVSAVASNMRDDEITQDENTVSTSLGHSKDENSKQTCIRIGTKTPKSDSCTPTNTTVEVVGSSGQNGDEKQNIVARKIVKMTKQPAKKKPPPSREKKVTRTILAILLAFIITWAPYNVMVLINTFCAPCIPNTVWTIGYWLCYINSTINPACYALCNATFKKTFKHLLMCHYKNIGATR

[17] = Inhibition of sodium channel site 2 at 1 uM
[18] = target: Adenosine receptor A2a (Homo sapiens) (UniProt P29274); assay: Inhibition of adenosine A2A receptor at 1 uM
Sequence of Adenosine receptor A2a (Homo sapiens) (P29274 whole entry): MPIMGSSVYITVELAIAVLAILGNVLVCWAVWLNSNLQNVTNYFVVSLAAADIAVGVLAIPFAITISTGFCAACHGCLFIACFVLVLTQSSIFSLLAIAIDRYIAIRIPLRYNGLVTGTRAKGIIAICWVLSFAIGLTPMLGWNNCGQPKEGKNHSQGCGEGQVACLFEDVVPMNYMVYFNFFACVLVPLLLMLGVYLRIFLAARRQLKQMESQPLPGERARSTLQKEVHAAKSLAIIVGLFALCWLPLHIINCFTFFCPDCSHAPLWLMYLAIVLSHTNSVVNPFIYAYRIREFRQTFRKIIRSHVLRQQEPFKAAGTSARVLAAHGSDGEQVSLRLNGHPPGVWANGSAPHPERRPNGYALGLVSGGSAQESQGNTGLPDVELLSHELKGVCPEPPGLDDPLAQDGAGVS

[19] = target: Sigma non-opioid intracellular receptor 1 (Homo sapiens) (UniProt Q99720); assay: Inhibition of sigma 1 receptor at 1 uM
Sequence of Sigma non-opioid intracellular receptor 1 (Homo sapiens) (Q99720 whole entry): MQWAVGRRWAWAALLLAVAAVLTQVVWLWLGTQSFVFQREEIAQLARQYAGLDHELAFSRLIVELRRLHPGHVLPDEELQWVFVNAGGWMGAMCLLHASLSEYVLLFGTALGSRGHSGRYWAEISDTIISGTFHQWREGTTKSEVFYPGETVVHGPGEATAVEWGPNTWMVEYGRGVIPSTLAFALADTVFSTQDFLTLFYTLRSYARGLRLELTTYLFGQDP

[20] = target: T6, Alpha-1B adrenergic receptor (Homo sapiens) (UniProt P35368); assay: Inhibition of adrenergic Alpha-1B receptor at 1 uM
T6 sequence (whole entry): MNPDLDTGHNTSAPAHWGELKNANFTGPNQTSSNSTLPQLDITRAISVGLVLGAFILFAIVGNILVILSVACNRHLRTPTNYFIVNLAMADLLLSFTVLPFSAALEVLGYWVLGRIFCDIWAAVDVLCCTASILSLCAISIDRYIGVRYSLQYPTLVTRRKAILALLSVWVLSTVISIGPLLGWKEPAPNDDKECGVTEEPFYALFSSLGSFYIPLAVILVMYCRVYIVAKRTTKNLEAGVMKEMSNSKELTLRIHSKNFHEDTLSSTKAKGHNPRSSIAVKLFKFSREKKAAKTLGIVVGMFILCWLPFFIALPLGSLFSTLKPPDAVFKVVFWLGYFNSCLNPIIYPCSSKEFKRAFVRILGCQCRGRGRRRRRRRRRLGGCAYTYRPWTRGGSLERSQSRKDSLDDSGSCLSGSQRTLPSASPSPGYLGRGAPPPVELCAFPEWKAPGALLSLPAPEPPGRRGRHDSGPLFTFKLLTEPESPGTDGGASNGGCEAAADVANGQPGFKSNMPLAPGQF

[21] = Inhibition of nicotinic acetylcholine receptor at 1 uM
[22] = target: Sodium-dependent noradrenaline transporter (Homo sapiens) (UniProt P23975); assay: Inhibition of norepinephrine transporter at 1 uM
Sequence of Sodium-dependent noradrenaline transporter (Homo sapiens) (P23975 whole entry): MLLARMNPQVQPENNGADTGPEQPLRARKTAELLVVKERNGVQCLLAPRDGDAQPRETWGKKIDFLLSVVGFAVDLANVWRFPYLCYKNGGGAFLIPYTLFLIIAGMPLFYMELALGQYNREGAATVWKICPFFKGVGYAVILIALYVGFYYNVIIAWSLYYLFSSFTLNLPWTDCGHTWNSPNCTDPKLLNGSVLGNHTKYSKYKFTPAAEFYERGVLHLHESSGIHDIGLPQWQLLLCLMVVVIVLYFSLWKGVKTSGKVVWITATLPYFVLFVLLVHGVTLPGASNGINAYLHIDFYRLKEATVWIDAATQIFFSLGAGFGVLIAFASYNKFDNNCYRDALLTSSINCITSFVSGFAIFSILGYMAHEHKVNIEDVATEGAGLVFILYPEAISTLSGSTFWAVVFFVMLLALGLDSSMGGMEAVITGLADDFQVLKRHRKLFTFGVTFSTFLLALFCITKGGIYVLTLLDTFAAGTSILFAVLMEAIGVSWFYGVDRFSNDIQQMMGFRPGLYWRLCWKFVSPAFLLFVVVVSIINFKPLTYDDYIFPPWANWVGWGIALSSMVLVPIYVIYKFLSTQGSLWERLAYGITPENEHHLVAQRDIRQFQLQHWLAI

[23] = Inhibition of GABAA receptor agonist site at 1 uM; format: functional
[24] = target: Prostaglandin E2 receptor EP4 subtype (Homo sapiens) (UniProt P35408); assay: Inhibition of prostanoid EP4 receptor at 1 uM
Sequence of Prostaglandin E2 receptor EP4 subtype (Homo sapiens) (P35408 whole entry): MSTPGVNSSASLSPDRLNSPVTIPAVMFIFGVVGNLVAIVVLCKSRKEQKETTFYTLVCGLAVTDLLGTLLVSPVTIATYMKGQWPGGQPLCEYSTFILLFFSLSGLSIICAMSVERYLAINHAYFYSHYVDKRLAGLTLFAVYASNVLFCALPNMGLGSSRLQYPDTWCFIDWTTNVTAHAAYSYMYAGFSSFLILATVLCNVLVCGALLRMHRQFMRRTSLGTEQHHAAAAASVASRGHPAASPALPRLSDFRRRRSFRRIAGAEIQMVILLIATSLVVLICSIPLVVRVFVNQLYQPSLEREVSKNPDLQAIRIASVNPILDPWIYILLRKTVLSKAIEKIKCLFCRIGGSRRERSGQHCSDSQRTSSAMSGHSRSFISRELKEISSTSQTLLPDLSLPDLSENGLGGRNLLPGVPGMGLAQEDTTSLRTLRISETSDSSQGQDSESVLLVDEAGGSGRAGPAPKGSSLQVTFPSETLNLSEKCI

[25] = Inhibition of sigma 2 receptor at 1 uM
[26] = Inhibition of central imidazoline I2 receptor at 1 uM
[27] = Inhibition of NMDA receptor at 1 uM
[28] = Inhibition of calcium channel L type dihydropyridine binding site at 1 uM
[29] = Inhibition of nicotinic bungarotoxin-sensitive acetylcholine receptor at 1 uM

OC(c1ccc2c(cnn2-c2ccc(F)cc2)c1)(c1ccccc1F)C(F)(F)F (stereo not given)
IC50 (Glucocorticoid receptor): 54 nM

OC(c1ccc2c(cnn2-c2ccc(F)cc2)c1)(c1ccccc1Cl)C(F)(F)F (stereo not given)
IC50 (Glucocorticoid receptor): 35 nM

OC(c1cccc(Cl)c1)(c1ccc2c(cnn2-c2ccc(F)cc2)c1)C(F)(F)F (stereo not given)
IC50 (Glucocorticoid receptor): 72 nM

N#Cc1cccc(C(O)(c2ccc3c(cnn3-c3ccc(F)cc3)c2)C(F)(F)F)c1 (stereo not given)
IC50 (Glucocorticoid receptor): 99 nM

N#Cc1cc(C(O)(c2ccc3c(cnn3-c3ccc(F)cc3)c2)C(F)(F)F)ccc1F (stereo not given)
IC50 (Glucocorticoid receptor): 30 nM

OC(c1ccc(Cl)c(Cl)c1)(c1ccc2c(cnn2-c2ccc(F)cc2)c1)C(F)(F)F (stereo not given)
IC50 (Glucocorticoid receptor): 178 nM

Cc1cccc(C(O)(c2ccc3c(cnn3-c3ccc(F)cc3)c2)C(F)(F)F)c1 (stereo not given)
IC50 (Glucocorticoid receptor): 52 nM

OC(c1ccc(F)cc1)c1ccc2c(cnn2-c2ccc(F)cc2)c1 (stereo not given)
IC50 (Glucocorticoid receptor): 10000 nM

Cc1ccccc1C(O)(c1ccc2c(cnn2-c2ccc(F)cc2)c1)C(F)(F)F (stereo not given)
IC50 (Glucocorticoid receptor): 282 nM

CC(O)(c1ccc(F)cc1)c1ccc2c(cnn2-c2ccc(F)cc2)c1 (stereo not given)
IC50 (Glucocorticoid receptor): 2110 nM

Cc1ccc(C(O)(c2ccc3c(cnn3-c3ccc(F)cc3)c2)C(F)(F)F)cc1 (stereo not given)
IC50 (Glucocorticoid receptor): 2090 nM

OC(c1ccc(F)cc1)(c1ccc2c(cnn2-c2ccc(F)cc2)c1)C(F)(F)F (single isomer, unassigned; (+)) [2,2,2-TRIFLUORO-1-(4-FLUOROPHENYL)-1-(1-(4-FLUOROPHENYL)-1H-INDAZOL-5-YL)ETHANOL (DIASTEREOMERIC MIX)]
IC50 (Glucocorticoid receptor): 3000 nM

OC(c1ccc(F)c(Cl)c1)(c1ccc2c(cnn2-c2ccc(F)cc2)c1)C(F)(F)F (single isomer, unassigned; (-))
inhibition [1]: < 50%
inhibition [2]: < 50%
inhibition [3]: < 50%
inhibition [4]: < 50%
inhibition [5]: < 50%
inhibition [6]: < 50%
inhibition [7]: < 50%
inhibition [8]: < 50%
inhibition [9]: < 50%
inhibition [10]: < 50%
inhibition [11]: < 50%
inhibition [12]: < 50%
inhibition [13]: < 50%
inhibition [14]: < 50%
inhibition [15]: < 50%
inhibition [16]: < 50%
inhibition [17]: < 50%
inhibition [18]: < 50%
inhibition [19]: < 50%
inhibition [20]: < 50%
inhibition [21]: < 50%
inhibition [22]: < 50%
inhibition [23]: < 50%
inhibition [24]: < 50%
inhibition [25]: < 50%
inhibition [26]: < 50%
inhibition [27]: < 50%
inhibition [28]: < 50%
inhibition [29]: < 50%

OC(c1ccc(F)cc1)(c1ccc2c(cnn2-c2ccc(F)cc2)c1)C(F)(F)F (single isomer, unassigned; (-)) [2,2,2-TRIFLUORO-1-(4-FLUOROPHENYL)-1-(1-(4-FLUOROPHENYL)-1H-INDAZOL-5-YL)ETHANOL (DIASTEREOMERIC MIX)]
IC50 (Glucocorticoid receptor): 86 nM

OC(c1ccc(F)cc1)(c1ccc2c(cnn2-c2ccc(F)cc2)c1)C(F)(F)F (stereo in doubt; 12) [2,2,2-TRIFLUORO-1-(4-FLUOROPHENYL)-1-(1-(4-FLUOROPHENYL)-1H-INDAZOL-5-YL)ETHANOL (DIASTEREOMERIC MIX)]
IC50 (Glucocorticoid receptor): 161 nM

OC(c1ccc(F)c(Cl)c1)(c1ccc2c(cnn2-c2ccc(F)cc2)c1)C(F)(F)F (stereo in doubt; 18) [1-(3-CHLORO-4-FLUOROPHENYL)-2,2,2-TRIFLUORO-1-(1-(4-FLUOROPHENYL)-1H-INDAZOL-5-YL)ETHANOL (ENANTIOMERIC MIX)]
IC50 (Glucocorticoid receptor): 117 nM

OC(c1ccc2c(cnn2-c2ccc(F)cc2)c1)(c1cccc(Cl)c1Cl)C(F)(F)F (stereo in doubt; 23) [1-(2,3-DICHLOROPHENYL)-2,2,2-TRIFLUORO-1-(1-(4-FLUOROPHENYL)-1H-INDAZOL-5-YL)ETHANOL (ENANTIOMERIC MIX)]
IC50 (Glucocorticoid receptor): 87 nM
